From patent US6737431B2 (Bristol-Myers Squibb Company, priority 2002, dated 2004)

How the values were obtained:
melatonin ML1a receptor = biological target: T1, melatonin ML1a receptor (Homo sapiens, UniProt P48039); experiment: Melatonergic receptor binding, 2-[125I]-iodomelatonin, ML1a; conditions: NIH-3T3 membranes, 0.1 nM 2-[125I]-iodomelatonin, 37° C. 1 hour
T1 construct: expressed in transfected cells; membrane homogenates
Description: (§1) Melatonergic Receptor Binding Activity
(§2) (a) TME=50 mM Tris buffer containing 12.5 mM MgCl2, and 2 mM EDTA, pH 7.4 at 37° C., with concentrated HCl.
(§3) (b) Wash buffer: 20 mM Tris base containing 2 mM MgCl2, pH 7.4 at room temperature.
(§4) (c) 10^−4 M melatonin (10^−5 M final concentration).
(d) 2-[^125I]-iodomelatonin ML1a, 0.1 nM final concentration.
(§5) 2. Membrane Homogenates: The melatonin ML1a and ML1b receptors cDNA were individually subcloned into pcDNA3 and introduced into NIH-3T3 cells using Lipofectamine. Transformed NIH-3T3 cells resistant to geneticin (G-418) were isolated, and single colonies expressing high levels of 2[^125I]-iodomelatonin binding were isolated. Cells are maintained in DMEM supplemented with 10% calf serum and G-418 (0.5 g/liter). Cells are grown to confluency in T-175 flasks, scraped using Hank's balanced salt solution, and frozen at −80° C. For preparing membrane homogenates, pellets are thawed on ice, and re-suspended in TME buffer in the presence of 10 μg/ml aprotinin and leupeptin, and 100 μM phenylmethylsulfonylfluoride. The cells were then homogenized using a dounce homogenizer, and centrifuged. The resulting pellet was re-suspended with dounce homogenizer in TME (supplemented with the above protease inhibitors) and frozen. On the day of assay, a small aliquot was thawed on ice and re-suspended in the ice cold TME (1:50-1:100 v/v) and held on ice until assayed.
(§6) 3. Incubation: 37° C. for 1 hour. Reaction is terminated by filtration. Filters were washed 3 times.
(§7) 4. References: Reppert, S. M. et al., Neuron, 13, p. 1177-1185 (1994); and Reppert, S. M. et al., Proc. Natl. Acad. Sci. USA, 92, p. 8734-8738 (1995).
(§8) The compounds of the present invention have affinity for receptors of the endogenous pineal hormone, melatonin, as determined in receptor binding assays described above in Tables I to III for the ML1a and ML1b (human) receptors. Melatonin is involved in the regulation of a variety of biological rhythms and exerts its biological effects via interaction with specific receptors. There is evidence that administration of melatonin agonists are of clinical utility in the treatment of various conditions regulated by melatonin activity. Such conditions include depression, jet-lag, work-shift syndrome, sleep disorders, glaucoma, some disorders associated with reproduction, cancer benign prostatic hyperplasia, immune disorders, and neuroendocrine disorders.

melatonin ML1b receptor = biological target: T2, melatonin ML1b receptor (Homo sapiens, UniProt P49286); experiment: Melatonergic receptor binding, 2-[125I]-iodomelatonin, ML1b; conditions: NIH-3T3 membranes, 0.2 nM 2-[125I]-iodomelatonin, 37° C. 1 hour
T2 construct: expressed in transfected cells; membrane homogenates
T2 sequence (P49286 1-362): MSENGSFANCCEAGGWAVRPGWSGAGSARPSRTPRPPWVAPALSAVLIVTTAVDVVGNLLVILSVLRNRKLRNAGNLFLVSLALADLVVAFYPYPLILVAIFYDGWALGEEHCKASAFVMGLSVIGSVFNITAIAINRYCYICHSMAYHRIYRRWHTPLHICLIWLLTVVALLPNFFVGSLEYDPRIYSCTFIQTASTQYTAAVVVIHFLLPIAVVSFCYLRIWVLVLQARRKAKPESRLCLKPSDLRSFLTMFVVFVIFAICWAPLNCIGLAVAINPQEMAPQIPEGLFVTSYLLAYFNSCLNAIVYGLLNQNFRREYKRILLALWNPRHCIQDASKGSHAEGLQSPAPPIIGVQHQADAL
Description: as §1, §2, §3, §4
(e) 2-[^125I]-iodomelatonin ML1b, 0.2 nM final concentration.
as §5, §6, §7, §8

T1 sequence (P48039 whole entry): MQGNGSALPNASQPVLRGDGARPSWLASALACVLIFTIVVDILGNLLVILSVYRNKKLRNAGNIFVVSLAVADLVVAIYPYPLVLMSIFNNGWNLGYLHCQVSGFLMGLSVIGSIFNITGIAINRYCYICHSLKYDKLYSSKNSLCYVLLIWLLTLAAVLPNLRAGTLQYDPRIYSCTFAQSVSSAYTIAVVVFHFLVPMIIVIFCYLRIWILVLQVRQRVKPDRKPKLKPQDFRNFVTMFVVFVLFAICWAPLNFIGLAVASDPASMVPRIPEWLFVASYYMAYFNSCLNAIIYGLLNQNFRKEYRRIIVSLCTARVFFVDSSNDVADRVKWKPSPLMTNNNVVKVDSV

Compound | IC50 (melatonin ML1a receptor; Table II) [nM] | IC50 (melatonin ML1b receptor; Table II) [nM] | IC50 (melatonin ML1a receptor; Table III) [nM] | IC50 (melatonin ML1b receptor; Table III) [nM]
C=Cc1cc(CCCNC(=O)c2ccccc2)c2oc(CC)nc2c1 [Example 71, N-[3-(2-Ethyl-5-vinylbenzoxazol-7-yl)propyl]benzamide] | > 250 | > 250 | – | –
C=Cc1cc(CCCNC(=O)C2CC2)c2oc(CC)nc2c1 [Example 72, Cyclopropyl-N-[3-(2-ethyl-5-vinylbenzoxazol-7-yl)propyl]carboxamide] | > 250 | > 250 | – | –
CCc1nc2ccc(-c3ccco3)c(CCCNC(C)=O)c2o1 [Example 73, N-[3-(2-Ethyl-6-(2-furyl)benzoxazol-7-yl)propyl]acetamide] | < 10 | < 10 | – | –
CCc1nc2ccc(-c3ccco3)c(CCCNC(=O)C3CC3)c2o1 [Example 75, Cyclopropyl-N-[3-(2-ethyl-6-(2-furyl)benzoxazol-7-yl)propyl]carboxamide] | 10 to 250 | < 10 | – | –
CCc1nc2cccc([C@@H]3C[C@H]3CNC(C)=O)c2o1 [Example 76, N-{[(1R,2R)-2-(2-Ethylbenzoxazol-7-yl)cyclopropyl]methyl}acetamide] | – | – | < 10 | < 10
CCC(=O)NC[C@@H]1C[C@H]1c1cccc2nc(CC)oc12 [Example 77, N-{[(1R,2R)-2-(2-Ethylbenzoxazol-7-yl)cyclopropyl]methyl}propanamide] | – | – | < 10 | < 10
CCCC(=O)NC[C@@H]1C[C@H]1c1cccc2nc(CC)oc12 [Example 78, N-{[(1R,2R)-2-(2-Ethylbenzoxazol-7-yl)cyclopropyl]methyl}butanamide] | – | – | < 10 | < 10
CCc1nc2cccc([C@@H]3C[C@H]3CNC(=O)C(C)C)c2o1 [Example 79, N-{[(1R,2R)-2-(2-Ethylbenzoxazol-7-yl)cyclopropyl]methyl}-2-methylpropanamide] | – | – | < 10 | < 10
CCc1nc2cccc([C@@H]3C[C@H]3CNC(=O)C3CC3)c2o1 [Example 80, N-{[(1R,2R)-2-(2-Ethylbenzoxazol-7-yl)cyclopropyl]methyl}cyclopropylcarboxamide] | – | – | < 10 | < 10
CCNC(=O)NC[C@@H]1C[C@H]1c1cccc2nc(CC)oc12 [Example 81, N-{[(1R,2R)-2-(2-Ethylbenzoxazol-7-yl)cyclopropyl]methyl}(ethylamino)carboxamide] | – | – | < 10 | < 10
CCCc1nc2cccc([C@@H]3C[C@H]3CNC(C)=O)c2o1 [Example 82, N-{[(1R,2R)-2-(2-Propylbenzoxazol-7-yl)cyclopropyl]methyl}acetamide] | – | – | < 10 | < 10
CC(=O)NC[C@@H]1C[C@H]1c1cccc2nc(C(C)C)oc12 [Example 83, N-({(1R,2R)-2-[2-(Methylethyl)benzoxazol-7-yl]cyclopropyl}methyl)acetamide] | – | – | 10 to 250 | < 10
CCCc1nc2cccc([C@@H]3C[C@H]3CNC(=O)CC)c2o1 [Example 84, N-{[(1R,2R)-2-(2-Propylbenzoxazol-7-yl)cyclopropyl]methyl}propanamide] | – | – | < 10 | < 10
CCC(=O)NC[C@@H]1C[C@H]1c1cccc2nc(C(C)C)oc12 [Example 85, N-({(1R,2R)-2-[2-(Methylethyl)benzoxazol-7-yl]cyclopropyl}methyl)propanamide] | – | – | < 10 | < 10
CCCC(=O)NC[C@@H]1C[C@H]1c1cccc2nc(CCC)oc12 [Example 86, N-{[(1R,2R)-2-(2-Propylbenzoxazol-7-yl)cyclopropyl]methyl}butanamide] | – | – | < 10 | < 10
CCCC(=O)NC[C@@H]1C[C@H]1c1cccc2nc(C(C)C)oc12 [Example 87, N-({(1R,2R)-2-[2-(Methylethyl)benzoxazol-7-yl]cyclopropyl}methyl)butanamide] | – | – | < 10 | < 10
CCCc1nc2cccc([C@@H]3C[C@H]3CNC(=O)C3CC3)c2o1 [Example 90, N-{[(1R,2R)-2-(2-Propylbenzoxazol-7-yl)cyclopropyl]methyl}cyclopropylcarboxamide] | – | – | < 10 | < 10
CC(C)c1nc2cccc([C@@H]3C[C@H]3CNC(=O)C3CC3)c2o1 [Example 91, N-({(1R,2R)-2-[2-(Methylethyl)benzoxazol-7-yl]cyclopropyl}methyl)cyclopropylcarboxamide] | – | – | < 10 | < 10
CCCc1nc2cccc([C@@H]3C[C@H]3CNC(=O)NCC)c2o1 [Example 92, N-{[(1R,2R)-2-(2-Propylbenzoxazol-7-yl)cyclopropyl]methyl}(ethylamino)carboxamide] | – | – | < 10 | < 10
CCNC(=O)NC[C@@H]1C[C@H]1c1cccc2nc(C(C)C)oc12 [Example 93, N-({(1R,2R)-2-[2-(Methylethyl)benzoxazol-7-yl]cyclopropyl}methyl)(ethylamino)carboxamide] | – | – | 10 to 250 | 10 to 250
N-({(1R,2R)-2-[2-(5-Phenylbutyl)benzoxazol-7-yl]cyclopropyl}methyl)-2-methylpropanamide [Example 97] | – | – | < 10 | < 10
N-({(1R,2R)-2-[2-(5-Phenylbutyl)benzoxazol-7-yl]cyclopropyl}methyl)acetamide [Example 94] | – | – | < 10 | < 10
N-({(1R,2R)-2-[2-(5-Phenylbutyl)benzoxazol-7-yl]cyclopropyl}methyl)butanamide [Example 96] | – | – | < 10 | < 10
N-({(1R,2R)-2-[2-(5-Phenylbutyl)benzoxazol-7-yl]cyclopropyl}methyl)cyclopropylcarboxamide [Example 98] | – | – | < 10 | < 10
N-({(1R,2R)-2-[2-(5-Phenylbutyl)benzoxazol-7-yl]cyclopropyl}methyl)propanamide [Example 95] | – | – | < 10 | < 10
N-({(1R,2R)-2-[2-(Methylethyl)benzoxazol-7-yl]cyclopropyl}methyl)-3-methylbutanamide [Example 89] | – | – | < 10 | < 10
